Results taken from the supplement of paper PMC11061612.

Assays:
[1] = test system: TE-10 (Esophageal Squamous Cell Carcinoma); assay: Bliss excess, mean over the matrix (fraction); higher = more synergy
Summary of the method: (§1)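 Bliss excess equals the observed combination effect minus the expected value EA + EB − EA·EB, where EA and EB are the effects of each agent alone. Combination Emax is the second-highest inhibition within the matrix. Inhibition was scaled from CellTiter-Glo 2.0 luminescence, with 0 set by vehicle wells and 1 by blank wells, after 72 hours of two-drug dosing of cells plated in 1536-well plates.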

[2] = test system: KYSE-220 (Esophageal Squamous Cell Carcinoma); assay: as above
Summary of the method: as §1

[3] = test system: NCI-H716 (Colorectal Carcinoma); assay: as above
Summary of the method: as §1

[4] = test system: NCI-H1703 (Squamous Cell Lung Carcinoma); assay: as above
Summary of the method: as §1

[5] = test system: A204 (Rhabdomyosarcoma); assay: as above
Summary of the method: as §1

[6] = test system: PEO1 (Ovarian Carcinoma); assay: as above
Summary of the method: as §1

[7] = test system: KP-N-YN (Neuroblastoma); assay: as above
Summary of the method: as §1

[8] = test system: NCI-H2087 (Lung Adenocarcinoma); assay: as above
Summary of the method: as §1

[9] = test system: COLO-792 (Melanoma); assay: as above
Summary of the method: as §1

[10] = test system: 22RV1 (Prostate Carcinoma); assay: as above
Summary of the method: as §1

[11] = test system: UACC-812 (Breast Carcinoma); assay: as above
Summary of the method: as §1

[12] = test system: TE-10 (Esophageal Squamous Cell Carcinoma); assay: combination Emax (second highest fraction inhibited in the dose matrix, 72 h); higher = more inhibition; extreme values may be limits of the assay
Summary of the method: as §1

[13] = test system: MKN1 (Gastric Carcinoma); assay: Bliss excess, mean over the matrix (fraction); higher = more synergy
Summary of the method: as §1

[14] = test system: NCI-H841 (Small Cell Lung Carcinoma); assay: as above
Summary of the method: as §1

[15] = test system: MKN1 (Gastric Carcinoma); assay: combination Emax (second highest fraction inhibited in the dose matrix, 72 h); higher = more inhibition; extreme values may be limits of the assay
Summary of the method: as §1

[16] = test system: NCI-H841 (Small Cell Lung Carcinoma); assay: as above
Summary of the method: as §1

Structure (SMILES): Cc1c2c(nn1C)CSCc1cc(n(C)n1)CSc1cc(c3ccccc3c1)OCCCc1c(C(=O)O)n(C)c3c-2c(Cl)ccc13 [AZD5991] + Cn1cnc2c(F)c(Nc3ccc(Br)cc3Cl)c(C(=O)NOCCO)cc21 [Selumetinib] (first compound max 1 µM, 7x7, partner max 3 µM)
- Bliss excess [1]: 0.0198
- Bliss excess [2]: 0.0119
- Bliss excess [3]: 0.0278
- Bliss excess [4]: -0.0087
- Bliss excess [5]: -0.0355
- Bliss excess [6]: 0.0027
- Bliss excess [7]: -0.0059
- Bliss excess [8]: 0.0282
- Bliss excess [9]: 0.0234
- Bliss excess [10]: 0.0253
- Bliss excess [11]: 0.0137
- combination Emax [12]: 0.899

Structure (SMILES): COc1cccc(OCCCN)c1-c1cc(Nc2cnc(C#N)cn2)n[nH]1 [Prexasertib] + O=C(c1cc(Cc2n[nH]c(=O)c3ccccc23)ccc1F)N1CCN(C(=O)C2CC2)CC1 [Olaparib] (first compound max 1 µM, 7x7, partner max 10 µM)
- Bliss excess [1]: -0.105
- Bliss excess [2]: -0.0238
- Bliss excess [3]: -0.0673
- Bliss excess [4]: -0.0537
- Bliss excess [5]: -0.0675
- Bliss excess [6]: -0.0183
- Bliss excess [7]: -0.245
- Bliss excess [8]: -0.11
- Bliss excess [9]: 0.0173
- Bliss excess [10]: -0.072
- Bliss excess [11]: -0.0395
- combination Emax [12]: 0.892

Structure (SMILES): Cc1c2c(nn1C)CSCc1cc(n(C)n1)CSc1cc(c3ccccc3c1)OCCCc1c(C(=O)O)n(C)c3c-2c(Cl)ccc13 [AZD5991] + Cc1cc2ncnn2cc1Nc1ncc2c(n1)n(C1CCOCC1)c(=O)n2C [AZD7648] (first compound max 1 µM, 7x7, partner max 10 µM)
- Bliss excess [1]: -0.0057
- Bliss excess [2]: 0.0083
- Bliss excess [3]: -0.0646
- Bliss excess [4]: 0.0168
- Bliss excess [5]: -0.0466
- Bliss excess [6]: -0.0279
- Bliss excess [7]: -0.0516
- Bliss excess [8]: -0.0221
- Bliss excess [9]: 0.0234
- Bliss excess [10]: -0.0528
- Bliss excess [11]: -0.0259
- combination Emax [12]: 0.855

Structure (SMILES): CCN(CCO)CCCOc1ccc2c(Nc3cc(CC(=O)Nc4cccc(F)c4)[nH]n3)ncnc2c1 [AZD2811] + O=C(c1cc(Cc2n[nH]c(=O)c3ccccc23)ccc1F)N1CCN(C(=O)C2CC2)CC1 [Olaparib] (first compound max 1 µM, 7x7, partner max 10 µM)
- Bliss excess [1]: 0.0515
- Bliss excess [2]: 0.01
- Bliss excess [3]: 0.0047
- Bliss excess [4]: 0.0062
- Bliss excess [5]: 0.0034
- Bliss excess [6]: -0.0019
- Bliss excess [7]: 0.0058
- Bliss excess [8]: 0.0128
- Bliss excess [9]: -0.0187
- Bliss excess [10]: 0.0017
- Bliss excess [11]: 0.0076
- combination Emax [12]: 0.4

Structure (SMILES): Cc1c2c(nn1C)CSCc1cc(n(C)n1)CSc1cc(c3ccccc3c1)OCCCc1c(C(=O)O)n(C)c3c-2c(Cl)ccc13 [AZD5991] + C=CCn1c(=O)c2cnc(Nc3ccc(N4CCN(C)CC4)cc3)nc2n1-c1cccc(C(C)(C)O)n1 [AZD1775] (first compound max 1 µM, partner max 1 µM)
- Bliss excess [1]: -0.0235
- Bliss excess [2]: 0.0181
- Bliss excess [4]: -0.0214
- Bliss excess [5]: 0.0348
- Bliss excess [6]: 0.0146
- Bliss excess [7]: -0.0247
- Bliss excess [8]: -0.0067
- Bliss excess [9]: 0.0348
- Bliss excess [10]: -0.003
- Bliss excess [11]: -0.0343
- combination Emax [12]: 0.942

Structure (SMILES): Cc1c2c(nn1C)CSCc1cc(n(C)n1)CSc1cc(c3ccccc3c1)OCCCc1c(C(=O)O)n(C)c3c-2c(Cl)ccc13 [AZD5991] + CN(C)CCCOc1ccc(-c2ccc3ncc4c(c3c2)n(C2CCOCC2)c(=O)n4C)cn1 [AZD0156] (first compound max 1 µM, 7x7, partner max 1 µM)
- Bliss excess [1]: -0.055
- Bliss excess [2]: -0.0053
- Bliss excess [3]: 0.0233
- Bliss excess [4]: -0.0272
- Bliss excess [5]: 0.0048
- Bliss excess [6]: -0.0155
- Bliss excess [7]: -0.0752
- Bliss excess [8]: 0.005
- Bliss excess [9]: 0.0191
- Bliss excess [10]: -0.167
- Bliss excess [11]: 0.0465
- combination Emax [12]: 0.84

Structure (SMILES): CN(CCO)CC[C@H](CSc1ccccc1)Nc1ccc(S(=O)(=O)NC(=O)c2ccc(N3CCC([C@@H](O)c4ccccc4-c4ccc(Cl)cc4)CC3)cc2)cc1S(=O)(=O)C(F)(F)F [AZD4320] + CN(C)CCCOc1ccc(-c2ccc3ncc4c(c3c2)n(C2CCOCC2)c(=O)n4C)cn1 [AZD0156] (first compound max 1 µM, 7x7, partner max 1 µM)
- Bliss excess [1]: -0.0208
- Bliss excess [2]: -0.0385
- Bliss excess [3]: -0.0214
- Bliss excess [4]: -0.0127
- Bliss excess [5]: -0.0468
- Bliss excess [6]: -0.0753
- Bliss excess [7]: -0.0064
- Bliss excess [8]: -0.0496
- Bliss excess [10]: -0.0416
- Bliss excess [11]: -0.0283
- combination Emax [12]: 0.281

Structure (SMILES): CC1(C)CCC(CN2CCN(c3ccc(C(=O)NS(=O)(=O)c4ccc(NCC5CCOCC5)c([N+](=O)[O-])c4)c(Oc4cnc5[nH]ccc5c4)c3)CC2)=C(c2ccc(Cl)cc2)C1 [Venetoclax] + C1CN(CCC1(C(=O)N[C@@H](CCO)C2=CC=C(C=C2)Cl)N)C3=NC=NC4=C3C=CN4 [Capivasertib] (first compound max 1 µM, 7x7, partner max 3 µM)
- Bliss excess [1]: -0.04
- Bliss excess [2]: -0.0023
- Bliss excess [3]: -0.0595
- Bliss excess [4]: 0.0192
- Bliss excess [5]: -0.0358
- Bliss excess [6]: -0.0564
- Bliss excess [7]: -0.0573
- Bliss excess [8]: -0.0553
- Bliss excess [9]: -0.0203
- Bliss excess [10]: -0.0475
- Bliss excess [11]: -0.0212
- combination Emax [12]: 0.506

Structure (SMILES): CC(=O)Nc1cccc(-n2c(=O)n(C3CC3)c(=O)c3c(Nc4ccc(I)cc4F)n(C)c(=O)c(C)c32)c1 [Trametinib] + Cc1nc(-c2cn3c(n2)-c2ccc(-c4cnn(C(C)(C)C(N)=O)c4)cc2OCC3)n(C(C)C)n1 [Taselisib] (first compound max 1 µM, 7x7, partner max 10 µM)
- Bliss excess [1]: 0.127
- Bliss excess [2]: 0.152
- Bliss excess [3]: 0.325
- Bliss excess [4]: 0.0652
- Bliss excess [5]: 0.149
- Bliss excess [6]: 0.204
- Bliss excess [7]: 0.0046
- Bliss excess [8]: 0.163
- Bliss excess [9]: 0.113
- Bliss excess [10]: 0.0551
- Bliss excess [11]: 0.0522
- combination Emax [12]: 0.965

Structure (SMILES): COc1nnc2ccc(N3CCC(c4ccc(OCCN5CCN(C)C(=O)[C@H]5C)cc4)CC3)nn12 [AZD5153] + CCN(CCO)CCCOc1ccc2c(Nc3cc(CC(=O)Nc4cccc(F)c4)[nH]n3)ncnc2c1 [AZD2811] (first compound max 1 µM, 7x7, partner max 1 µM)
- Bliss excess [2]: 0.0083
- Bliss excess [3]: -0.0316
- Bliss excess [4]: -0.038
- Bliss excess [5]: -0.0849
- Bliss excess [6]: -0.0137
- Bliss excess [7]: -0.0355
- Bliss excess [8]: -0.0645
- Bliss excess [9]: -0.0406
- Bliss excess [10]: -0.0252
- Bliss excess [13]: -0.0033
- Bliss excess [11]: -0.0742
- Bliss excess [14]: 0.0001
- combination Emax [15]: 0.807
- combination Emax [16]: 0.428

Structure (SMILES): COc1nnc2ccc(N3CCC(c4ccc(OCCN5CCN(C)C(=O)[C@H]5C)cc4)CC3)nn12 [AZD5153] + C=CCn1c(=O)c2cnc(Nc3ccc(N4CCN(C)CC4)cc3)nc2n1-c1cccc(C(C)(C)O)n1 [AZD1775] (first compound max 1 µM, partner max 1 µM)
- Bliss excess [2]: -0.0622
- Bliss excess [3]: -0.0734
- Bliss excess [4]: 0.0052
- Bliss excess [5]: -0.0887
- Bliss excess [6]: 0.058
- Bliss excess [7]: -0.135
- Bliss excess [8]: -0.0368
- Bliss excess [9]: 0.0823
- Bliss excess [10]: 0.0047
- Bliss excess [13]: 0.0363
- Bliss excess [11]: -0.0066
- Bliss excess [14]: -0.0299
- combination Emax [15]: 0.926
- combination Emax [16]: 0.503

Structure (SMILES): COc1nnc2ccc(N3CCC(c4ccc(OCCN5CCN(C)C(=O)[C@H]5C)cc4)CC3)nn12 [AZD5153] + Cn1cnc2c(F)c(Nc3ccc(Br)cc3Cl)c(C(=O)NOCCO)cc21 [Selumetinib] (first compound max 1 µM, 7x7, partner max 10 µM)
- Bliss excess [2]: 0.123
- Bliss excess [3]: 0.016
- Bliss excess [4]: -0.0065
- Bliss excess [5]: -0.0838
- Bliss excess [6]: -0.0509
- Bliss excess [7]: -0.0967
- Bliss excess [8]: -0.0192
- Bliss excess [9]: -0.055
- Bliss excess [10]: 0.0239
- Bliss excess [13]: -0.0081
- Bliss excess [11]: 0.0089
- Bliss excess [14]: -0.0121
- combination Emax [15]: 0.619
- combination Emax [16]: 0.328

Structure (SMILES): Cn1cnc2c(F)c(Nc3ccc(Br)cc3Cl)c(C(=O)NOCCO)cc21 [Selumetinib] + CCN(CCO)CCCOc1ccc2c(Nc3cc(CC(=O)Nc4cccc(F)c4)[nH]n3)ncnc2c1 [AZD2811] (first compound max 10 µM, 7x7, partner max 1 µM)
- Bliss excess [2]: 0.036
- Bliss excess [3]: 0.044
- Bliss excess [4]: -0.0167
- Bliss excess [5]: -0.0772
- Bliss excess [6]: -0.0252
- Bliss excess [7]: 0.0253
- Bliss excess [8]: -0.0497
- Bliss excess [9]: -0.0532
- Bliss excess [10]: -0.0797
- Bliss excess [13]: 0.002
- Bliss excess [11]: -0.049
- Bliss excess [14]: -0.0341
- combination Emax [15]: 0.538
- combination Emax [16]: 0.332

Structure (SMILES): CCc1c2c(nc3ccc(O)cc13)-c1cc3c(c(=O)n1C2)COC(=O)[C@]3(O)CC [SN-38] + O=C(c1cc(Cc2n[nH]c(=O)c3ccccc23)ccc1F)N1CCN(C(=O)C2CC2)CC1 [Olaparib] (first compound max 0.3 µM, 7x7, partner max 10 µM)
- Bliss excess [1]: 0.0939
- Bliss excess [2]: 0.0078
- Bliss excess [4]: 0.0271
- Bliss excess [6]: 0.0523
- Bliss excess [7]: -0.0038
- Bliss excess [8]: 0.017
- Bliss excess [9]: 0.0356
- Bliss excess [10]: 0.0497
- Bliss excess [11]: 0.0333
- combination Emax [12]: 0.752

Structure (SMILES): Cn1cnc2c(F)c(Nc3ccc(Br)cc3Cl)c(C(=O)NOCCO)cc21 [Selumetinib] + CC(C)n1c(=O)n(C)c2cnc3cc(F)c(-c4ccc(OCCCN5CCCCC5)nc4)cc3c21 [AZD1390] (first compound max 10 µM, 7x7, partner max 0.3 µM)
- Bliss excess [2]: 0.0022
- Bliss excess [3]: 0.0093
- Bliss excess [4]: -0.0158
- Bliss excess [5]: -0.0567
- Bliss excess [6]: -0.0118
- Bliss excess [7]: -0.0171
- Bliss excess [8]: -0.0541
- Bliss excess [9]: -0.0088
- Bliss excess [10]: -0.0538
- Bliss excess [13]: -0.0173
- Bliss excess [11]: -0.0436
- Bliss excess [14]: -0.0529
- combination Emax [15]: 0.182
- combination Emax [16]: 0.0728
